Results from PubChem BioAssay AID332 (DTP/NCI, 2004).
Values joined by “and” are separate entries in the source; they are usually repeats but may differ in a detail not shown here. Equal entries are not always repeated. Results filed as inconclusive are left out.

System: mice, ADJ-PC-20 plasma cell tumor sc, T/C %
Experiment: NCI In Vivo Anticancer Drug Screen. Data for tumor model ADJ-PC-20 Plasma Cell (subcutaneous) in unknown mice
Details: endpoint: mean tumor weight, higher = larger tumour
Description: The antitumor activity of compounds was measured in mice bearing transplantable tumors. Survival or tumor size were measured and the results are expressed as the measurement made in the treated group (T) divided by the measurement made in the vehicle treated control group (C). The tumor model used in this assay is ADJ-PC-20 Plasma Cell (subcutaneous) in unknown mice

[1] = dose: 4.0 mg/kg/injection, schedule: Q01DX010 (ip), vehicle: carboxymethylcellulose (CMC)
[2] = dose: 8.0 mg/kg/injection, schedule: Q01DX010 (ip), vehicle: carboxymethylcellulose (CMC)
[3] = dose: 12.5 mg/kg/injection, schedule: Q01DX010 (ip), vehicle: carboxymethylcellulose (CMC)
[4] = dose: 25.0 mg/kg/injection, schedule: Q01DX010 (ip), vehicle: carboxymethylcellulose (CMC)
[5] = dose: 50.0 mg/kg/injection, schedule: Q01DX010 (ip), vehicle: carboxymethylcellulose (CMC)
[6] = dose: 100.0 mg/kg/injection, schedule: Q01DX010 (ip), vehicle: carboxymethylcellulose (CMC)
[7] = dose: 6.25 mg/kg/injection, schedule: Q01DX010 (ip), vehicle: carboxymethylcellulose (CMC)
[8] = dose: 500.0 mg/kg/injection, schedule: Q01DX010 (ip), vehicle: carboxymethylcellulose (CMC)
[9] = dose: 1000.0 mg/kg/injection, schedule: Q01DX010 (ip), vehicle: carboxymethylcellulose (CMC)
[10] = dose: 250.0 mg/kg/injection, schedule: Q01DX010 (ip), vehicle: carboxymethylcellulose (CMC)

## Oc1cc(CN(CCCl)CCCl)c(O)cc1CN(CCCl)CCCl
dose: 0.22 mg/kg/injection, schedule: Q01DX010 (sc), vehicle: steriod suspending solution
  T/C: 62 % of control
dose: 0.45 mg/kg/injection, schedule: Q01DX010 (sc), vehicle: steriod suspending solution
  T/C: 69 % of control
dose: 0.9 mg/kg/injection, schedule: Q01DX010 (sc), vehicle: steriod suspending solution
  T/C: 76 % of control
dose: 1.8 mg/kg/injection, schedule: Q01DX010 (sc), vehicle: steriod suspending solution
  T/C: 28 % of control

## CCn1cnc2c(=S)nc[nH]c21
dose: 1.0 mg/kg/injection, schedule: Q01DX010 (ip), vehicle: carboxymethylcellulose (CMC)
  T/C: 71 % of control
dose: 2.0 mg/kg/injection, schedule: Q01DX010 (ip), vehicle: carboxymethylcellulose (CMC)
  T/C: 48 % of control
[1]
  T/C: 11 % of control
[2]
  T/C: 2 % of control

## COc1cc2c(c(OC)c1OC)-c1ccc(OC)c(=O)cc1[C@@H](NC(C)=O)CC2
dose: 8.0 micrograms/kg/injection, schedule: Q01DX010 (ip), vehicle: saline
  T/C: 99 % of control
dose: 16.0 micrograms/kg/injection, schedule: Q01DX010 (ip), vehicle: saline
  T/C: 114 % of control
dose: 31.0 micrograms/kg/injection, schedule: Q01DX010 (ip), vehicle: saline
  T/C: 105 % of control

## c1ccc(CNc2ncnc3[nH]ncc23)cc1
[1]
  T/C: 110 % of control
[2]
  T/C: 108 % of control
dose: 16.0 mg/kg/injection, schedule: Q01DX010 (ip), vehicle: carboxymethylcellulose (CMC)
  T/C: 82 % of control
dose: 32.0 mg/kg/injection, schedule: Q01DX010 (ip), vehicle: carboxymethylcellulose (CMC)
  T/C: 65 % of control

## CS(=O)(=O)OCCCl
[3]
  T/C: 120 % of control
[4]
  T/C: 114 % of control
[5]
  T/C: 76 % of control
[6]
  T/C: 124 % of control

## C[C@]12C=CC(=O)C=C1CC[C@@H]1[C@@H]2[C@@H](O)C[C@@]2(C)[C@H]1CC[C@]2(O)C(=O)CO
dose: 32.0 mg/kg/injection, schedule: Q01DX010 (sc), vehicle: steriod suspending solution
  T/C: 63 % of control

## N=C(N)c1ccc(Nc2ccc(C(=N)N)cc2)cc1
dose: 6.25 mg/kg/injection, schedule: Q01DX010 (ip), vehicle: methylcellulose (MC)
  T/C: 116 % of control
dose: 12.5 mg/kg/injection, schedule: Q01DX010 (ip), vehicle: methylcellulose (MC)
  T/C: 105 % of control

## O=NN(CCCl)C(=O)NCCCl
dose: 0.8 mg/kg/injection, schedule: Q01DX010 (ip), vehicle: saline
  T/C: 102 % of control
dose: 1.6 mg/kg/injection, schedule: Q01DX010 (ip), vehicle: saline
  T/C: 87 % of control
dose: 6.2 mg/kg/injection, schedule: Q01DX010 (ip), vehicle: saline
  T/C: 48 % of control

## Nc1ncnc2[nH]ncc12
[7]
  T/C: 108 % of control
[3]
  T/C: 87 % of control
[4]
  T/C: 22 % of control

## O=P1(N(CCCl)CCCl)NCCCO1 (configuration not stated)
dose: 3.2 mg/kg/injection, schedule: Q01DX010 (ip), vehicle: saline
  T/C: 21 % of control
dose: 6.25 mg/kg/injection, schedule: Q01DX010 (ip), vehicle: saline
  T/C: 7 % of control

## C[C@@H]1C[C@H]2CC[C@H](O2)[C@H](C)C(=O)O[C@@H](C)C[C@@H]2CC[C@@H](O2)[C@@H](C)C(=O)O[C@H](C)C[C@H]2CC[C@H](O2)[C@H](C)C(=O)O[C@@H](C)C[C@@H]2CC[C@@H](O2)[C@@H](C)C(=O)O1
[5]
  T/C: 110 % of control
[6]
  T/C: 120 % of control
dose: 200.0 mg/kg/injection, schedule: Q01DX010 (ip), vehicle: carboxymethylcellulose (CMC)
  T/C: 99 % of control

## CS(=O)(=O)OCC(O)C(O)COS(C)(=O)=O (configuration not stated)
dose: 99.0 mg/kg/injection, schedule: Q01DX010 (ip), vehicle: saline
  T/C: 78 % of control
dose: 188.0 mg/kg/injection, schedule: Q01DX010 (ip), vehicle: saline
  T/C: 53 % of control
dose: 375.0 mg/kg/injection, schedule: Q01DX010 (ip), vehicle: saline
  T/C: 58 % of control
dose: 750.0 mg/kg/injection, schedule: Q01DX010 (ip), vehicle: saline
  T/C: 7 % of control

## Cn1c(N)nc2nc[nH]c2c1=S
dose: 6.3 mg/kg/injection, schedule: Q01DX010 (ip), vehicle: carboxymethylcellulose (CMC)
  T/C: 118 % of control
[3]
  T/C: 105 % of control
[4]
  T/C: 116 % of control
[5]
  T/C: 98 % of control
[6]
  T/C: 76 % of control

## O=C(O)CCCc1ccc(N(CCCl)CCCl)cc1
[7]
  T/C: 120 % of control
[3]
  T/C: 58 % of control

## O=CN(O)CC(=O)O
dose: 62.5 mg/kg/injection, schedule: Q01DX011 (ip), vehicle: carboxymethylcellulose (CMC)
  T/C: 124 % of control
dose: 125.0 mg/kg/injection, schedule: Q01DX011 (ip), vehicle: carboxymethylcellulose (CMC)
  T/C: 76 % of control
dose: 250.0 mg/kg/injection, schedule: Q01DX011 (ip), vehicle: carboxymethylcellulose (CMC)
  T/C: 74 % of control
[8]
  T/C: 89 % of control
dose: 500.0 mg/kg/injection, schedule: Q01DX011 (ip), vehicle: carboxymethylcellulose (CMC)
  T/C: 56 % of control
[9]
  T/C: 63 % of control

## CCC(=O)O[C@H]1CC[C@H]2[C@@H]3CCC4=CC(=O)CC[C@]4(C)[C@H]3CC[C@]12C
dose: 125.0 mg/kg/injection, schedule: Q01DX010 (sc), vehicle: steriod suspending solution
  T/C: 79 % of control
dose: 250.0 mg/kg/injection, schedule: Q01DX010 (sc), vehicle: steriod suspending solution
  T/C: 154 % of control
dose: 500.0 mg/kg/injection, schedule: Q01DX010 (sc), vehicle: steriod suspending solution
  T/C: 76 % of control
dose: 1000.0 mg/kg/injection, schedule: Q01DX010 (sc), vehicle: steriod suspending solution
  T/C: 108 % of control
dose: 2000.0 mg/kg/injection, schedule: Q01DX010 (sc), vehicle: steriod suspending solution
  T/C: 80 % of control

## N[C@@H](Cc1ccc(N(CCCl)CCCl)cc1)C(=O)O
dose: 0.3 mg/kg/injection, schedule: Q01DX010 (ip), vehicle: saline
  T/C: 48 % of control
dose: 0.63 mg/kg/injection, schedule: Q01DX010 (ip), vehicle: saline
  T/C: 75 % of control
dose: 1.25 mg/kg/injection, schedule: Q01DX010 (ip), vehicle: saline
  T/C: 52 % of control

## O=C(Nc1ccc(NC2=NCCN2)cc1)c1ccc(C(=O)Nc2ccc(NC3=NCCN3)cc2)cc1
dose: 4.0 mg/kg/injection, schedule: Q01DX010 (ip), vehicle: saline
  T/C: 98 % of control
dose: 8.0 mg/kg/injection, schedule: Q01DX010 (ip), vehicle: saline
  T/C: 69 % of control

## O=c1cn[nH]c(=O)[nH]1
dose: 125.0 mg/kg/injection, schedule: Q01DX010 (ip), vehicle: carboxymethylcellulose (CMC)
  T/C: 75 % of control
[10]
  T/C: 64 % of control
[8]
  T/C: 66 % of control
[9]
  T/C: 38 % of control

## N#[N+]c1cnc([O-])[nH]c1=O
dose: 5.0 mg/kg/injection, schedule: Q01DX010 (ip), vehicle: carboxymethylcellulose (CMC)
  T/C: 99 % of control
dose: 10.0 mg/kg/injection, schedule: Q01DX010 (ip), vehicle: carboxymethylcellulose (CMC)
  T/C: 90 % of control

## NC(=O)N(CCCl)N=O
dose: 1.75 mg/kg/injection, schedule: Q01DX010 (ip), vehicle: carboxymethylcellulose (CMC)
  T/C: 93 % of control
dose: 3.5 mg/kg/injection, schedule: Q01DX010 (ip), vehicle: carboxymethylcellulose (CMC)
  T/C: 105 % of control
dose: 7.0 mg/kg/injection, schedule: Q01DX010 (ip), vehicle: carboxymethylcellulose (CMC)
  T/C: 102 % of control

## CSCS(=O)C[C@H](CO)NC(=O)/C=C/c1c(C)[nH]c(=O)[nH]c1=O (some centres not stated)
dose: 0.25 mg/kg/injection, schedule: Q01DX010 (ip), vehicle: saline
  T/C: 71 % of control
dose: 0.5 mg/kg/injection, schedule: Q01DX010 (ip), vehicle: saline
  T/C: 82 % of control

## CN(Cc1cnc2nc(N)nc(N)c2n1)c1ccc(C(=O)N[C@@H](CCC(=O)O)C(=O)O)cc1
dose: 0.04 mg/kg/injection, schedule: Q01DX010 (ip), vehicle: other
  T/C: 117 % of control
dose: 0.08 mg/kg/injection, schedule: Q01DX010 (ip), vehicle: other
  T/C: 107 % of control
dose: 0.15 mg/kg/injection, schedule: Q01DX010 (ip), vehicle: other
  T/C: 78 % of control
dose: 0.31 mg/kg/injection, schedule: Q01DX011 (ip), vehicle: other
  T/C: 46 % of control
dose: 0.62 mg/kg/injection, schedule: Q01DX010 (ip), vehicle: other
  T/C: 68 % of control and 89 % of control
dose: 0.62 mg/kg/injection, schedule: Q01DX011 (ip), vehicle: other
  T/C: 59 % of control
dose: 0.63 mg/kg/injection, schedule: Q01DX010 (ip), vehicle: other
  T/C: 88 % of control and 107 % of control

## CN(C)c1nc(N(C)C)nc(N(C)C)n1
dose: 62.5 mg/kg/injection, schedule: Q01DX010 (ip), vehicle: carboxymethylcellulose (CMC)
  T/C: 97 % of control
[10]
  T/C: 58 % of control

## Nc1nc(N)c2nc(CNc3ccc(C(=O)NC(CCC(=O)O)C(=O)O)cc3)cnc2n1 (configuration not stated)
dose: 63.0 micrograms/kg/injection, schedule: Q01DX010 (ip), vehicle: alkali diluted with saline
  T/C: 86 % of control
dose: 125.0 micrograms/kg/injection, schedule: Q01DX010 (ip), vehicle: alkali diluted with saline
  T/C: 82 % of control
